Source: patent publication US10155004B2, “17-hydroxy-17-pentafluoroethyl-estra-4,9(10)-dien-11-aryl derivatives, method of production thereof and use thereof for the treatment of diseases” (BAYER INTELLECTUAL PROPERTY GMBH, priority 2009, dated 2018)

Tested on: pregnant rats
Assay: Abortion test on female rats (termination of early pregnancy)
Format: in vivo, rat
Settings: d5-d7 p.c., autopsy d9 p.c.
Description: EXAMPLE 17 ABORTION TEST ON FEMALE RATS
The action of progesterone and of the progesterone receptor is a fundamental precondition for successful pregnancy or gestation in mammals. The progesterone-antagonistic action of the compounds according to the invention was tested on pregnant rats (6 rats per group) on day 5 to 7 post coitum with conventional housing and feeding conditions.
After successful hand mating, the pregnant animals (presence of sperm in the vaginal smear on day 1 of pregnancy=d1 p.c.) were randomized and divided into the treatment group and the control group. The animals then each received subcutaneously or orally 0.15; 0.5; 1.5 or 5 mg/kg of the test compound or 1.0 ml/kg of vehicle (benzyl benzoate/castor oil: 1+4 [v/v]) daily from day 5 to day 7 (d5-d7 p.c.).
Autopsy was carried out on day 9 (d9 p.c.). As a characteristic of progesterone receptor antagonistic action, the uterus was examined for the presence of nidation sites. Complete absence, or also the presence of pathological, haemorrhagic or otherwise abnormal nidation sites on day 9 (d9 p.c.) was assessed as abortion.

C[C@]12C[C@H](c3ccc(S(C)(=O)=O)cc3)C3=C4CCC(=O)C=C4CC[C@H]3[C@@H]1CC[C@@]2(O)C(F)(F)C(F)(F)F [Example 4, (11β,17β)-17-Hydroxy-11-[4-(methylsulphonyl)phenyl]-17-(pentafluoroethyl)estra-4,9-dien-3-one]
Abortion rate (daily dose 0.15 mg/kg s.c. or p.o.): 40% | Abortion rate (daily dose 0.5 mg/kg s.c. or p.o.): 100% | Abortion rate (daily dose 1.5 mg/kg s.c. or p.o.): 100% | Abortion rate (daily dose 5.0 mg/kg s.c. or p.o.): 100%
